{"source": "patent US11446287B2", "about": "“Compounds and methods for EP300 or CBP modulation and indications therefor” (Opna Immuno-Oncology SA, priority 2019, dated 2022)", "data": [{"target": "T1, Recombinant human CBP containing the bromodomain (CBP-BD (1043-1159)) (Homo sapiens, UniProt Q92793)", "T1 construct": "Recombinant human CBP bromodomain (CBP-BD (1043-1159)); made in house; host or cells: E. coli BL21-CodonPlus (DE3), modified pET vector", "T1 sequence (Q92793 1081-1197)": "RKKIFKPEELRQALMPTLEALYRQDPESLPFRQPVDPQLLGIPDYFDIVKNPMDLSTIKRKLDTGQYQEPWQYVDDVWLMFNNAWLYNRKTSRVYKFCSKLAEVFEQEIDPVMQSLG", "experiment": "CBP Alphascreen binding assay", "details": "read-out: CREBBP (CBP) IC50", "in_short": "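Buffer: 50 mM HEPES pH 7.5, 50 mM NaCl, 0.01% BSA, 0.01% Triton X-100, 2 mM DTT. The signal was normalised to plate controls and fitted with a four-parameter curve to give IC50.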", "units": {"IC50": "nM"}, "values": [{"smiles": "CCOc1cc(C(=O)O)cc(OCC)c1-n1cc(-c2ccc(F)cc2F)c2ncc(-c3c(C)noc3C)cc21", "note": "[P-0186, 4-(3-(2,4-difluorophenyl)-6-(3,5-dimethylisoxazol-4-yl)-1H-pyrrolo[3,2-b]pyridin-1-yl)-3,5-diethoxybenzoic acid]", "IC50": "0.1 to 1000"}, {"smiles": "CCOc1cc(C(=O)O)cc(OCC)c1-n1cc(Cc2ccccn2)c2ncc(-c3c(C)noc3C)cc21", "note": "[P-0187, 4-(6-(3,5-dimethylisoxazol-4-yl)-3-(pyridin-2-ylmethyl)-1H-pyrrolo[3,2-b]pyridin-1-yl)-3,5-diethoxybenzoic acid]", "IC50": "0.1 to 1000"}, {"smiles": "Cc1noc(C)c1-c1cnc2c(c1)c(-c1ccc(C(=O)O)cc1OC(F)(F)F)cn2-c1ccccc1", "note": "[P-0188, 4-(5-(3,5-dimethylisoxazol-4-yl)-1-phenyl-1H-pyrrolo[2,3-b]pyridin-3-yl)-3-(trifluoromethoxy)benzoic acid]", "IC50": "0.1 to 1000"}, {"smiles": "Cc1ccncc1-n1cc(-c2ccc(C(=O)O)cc2OC(F)(F)F)c2cc(-c3c(C)noc3C)cnc21", "note": "[P-0189, 4-(5-(3,5-dimethylisoxazol-4-yl)-1-(4-methylpyridin-3-yl)-1H-pyrrolo[2,3-b]pyridin-3-yl)-3-(trifluoromethoxy)benzoic acid]", "IC50": "0.1 to 1000"}, {"smiles": "CCOc1cc(C(=O)O)cc(OCC)c1-n1cc(CC2CCC2)c2ncc(-c3c(C)nnn3C)cc21", "note": "[P-0190, 4-(3-(cyclobutylmethyl)-6-(1,4-dimethyl-1H-1,2,3-triazol-5-yl)-1H-pyrrolo[3,2-b]pyridin-1-yl)-3,5-diethoxybenzoic acid]", "IC50": "0.1 to 1000"}, {"smiles": "Cc1noc(C)c1-c1cnc2c(c1)c(-c1ccc(C(=O)O)cc1OC(F)(F)F)cn2CCN1CCOCC1", "note": "[P-0191, 4-(5-(3,5-dimethylisoxazol-4-yl)-1-(2-morpholinoethyl)-1H-pyrrolo[2,3-b]pyridin-3-yl)-3-(trifluoromethoxy)benzoic acid]", "IC50": "0.1 to 1000"}, {"smiles": "CCOc1cc(C(=O)O)cc(OCC)c1-n1cc(-c2ccc(C3CC3)nc2)c2ncc(-c3c(C)noc3C)cc21", "note": "[P-0192, 4-(3-(6-cyclopropylpyridin-3-yl)-6-(3,5-dimethylisoxazol-4-yl)-1H-pyrrolo[3,2-b]pyridin-1-yl)-3,5-diethoxybenzoic acid]", "IC50": "0.1 to 1000"}, {"smiles": "CCOc1cc(C(=O)O)cc(OCC)c1-n1cc(-c2cncc(Cl)c2)c2ncc(-c3c(C)noc3C)cc21", "note": "[P-0193, 4-(3-(5-chloropyridin-3-yl)-6-(3,5-dimethylisoxazol-4-yl)-1H-pyrrolo[3,2-b]pyridin-1-yl)-3,5-diethoxybenzoic acid]", "IC50": "0.1 to 1000"}, {"smiles": "CCOc1cc(C(=O)O)cc(OCC)c1-n1cc(-c2ccc(OC)cc2F)c2ncc(-c3c(C)noc3C)cc21", "note": "[P-0194, 4-(6-(3,5-dimethylisoxazol-4-yl)-3-(2-fluoro-4-methoxyphenyl)-1H-pyrrolo[3,2-b]pyridin-1-yl)-3,5-diethoxybenzoic acid]", "IC50": "0.1 to 1000"}, {"smiles": "CCOc1cc(C(=O)O)cc(OCC)c1-n1cc(-c2cnn(C)c2)c2ncc(-c3c(C)noc3C)cc21", "note": "[P-0195, 4-(6-(3,5-dimethylisoxazol-4-yl)-3-(1-methyl-1H-pyrazol-4-yl)-1H-pyrrolo[3,2-b]pyridin-1-yl)-3,5-diethoxybenzoic acid]", "IC50": "0.1 to 1000"}, {"smiles": "Cc1noc(C)c1-c1cnc2c(-c3ccccc3)cn(-c3ccc(C(=O)O)cc3OC(F)(F)F)c2c1", "note": "[P-0196, 4-(6-(3,5-dimethylisoxazol-4-yl)-3-phenyl-1H-pyrrolo[3,2-b]pyridin-1-yl)-3-(trifluoromethoxy)benzoic acid]", "IC50": "0.1 to 1000"}, {"smiles": "Cc1noc(C)c1-c1cnc2c(c1)c(-c1c(Cl)cc(C(=O)O)cc1Cl)cn2[C@@H](C)c1ccccn1", "note": "[P-0197, (S)-3,5-dichloro-4-(5-(3,5-dimethylisoxazol-4-yl)-1-(1-(pyridin-2-yl)ethyl)-1H-pyrrolo[2,3-b]pyridin-3-yl)benzoic acid]", "IC50": "0.1 to 1000"}, {"smiles": "Cc1noc(C)c1-c1cnc2c(c1)c(-c1c(Cl)cc(C(=O)O)cc1OC(F)(F)F)cn2C(C1CC1)C1CC1", "note": "[P-0198, 3-chloro-4-(1-(dicyclopropylmethyl)-5-(3,5-dimethylisoxazol-4-yl)-1H-pyrrolo[2,3-b]pyridin-3-yl)-5-(trifluoromethoxy)benzoic acid]", "IC50": "0.1 to 1000"}, {"smiles": "Cc1noc(C)c1-c1cnc2c(c1)c(-c1ccc(C(=O)O)cc1OC(F)(F)F)cn2C(CC#N)C1CC1", "note": "(centres unmarked) [P-0199, 4-(1-(2-cyano-1-cyclopropylethyl)-5-(3,5-dimethylisoxazol-4-yl)-1H-pyrrolo[2,3-b]pyridin-3-yl)-3-(trifluoromethoxy)benzoic acid]", "IC50": "0.1 to 1000"}, {"smiles": "Cc1noc(C)c1-c1cnc2c(c1)c(-c1ccc(C(=O)O)cc1OC(F)(F)F)cn2C(CC#N)C1CCCC1", "note": "(centres unmarked) [P-0200, 4-(1-(2-cyano-1-cyclopentylethyl)-5-(3,5-dimethylisoxazol-4-yl)-1H-pyrrolo[2,3-b]pyridin-3-yl)-3-(trifluoromethoxy)benzoic acid]", "IC50": "0.1 to 1000"}, {"smiles": "CCOc1cc(C(=O)O)cc(OCC)c1-n1cc(-c2cnc(OC)nc2)c2ncc(-c3c(C)noc3C)cc21", "note": "[P-0201, 4-(6-(3,5-dimethylisoxazol-4-yl)-3-(2-methoxypyrimidin-5-yl)-1H-pyrrolo[3,2-b]pyridin-1-yl)-3,5-diethoxybenzoic acid]", "IC50": "0.1 to 1000"}, {"smiles": "Cc1noc(C)c1-c1cnc2c(c1)c(-c1ccc(C(=O)O)cc1OC(F)(F)F)cn2S(=O)(=O)C1CC1", "note": "[P-0202, 4-(1-(cyclopropylsulfonyl)-5-(3,5-dimethylisoxazol-4-yl)-1H-pyrrolo[2,3-b]pyridin-3-yl)-3-(trifluoromethoxy)benzoic acid]", "IC50": "0.1 to 1000"}, {"smiles": "Cc1noc(C)c1-c1cnc2c(c1)c(-c1ccc(C(=O)O)cc1OC(F)(F)F)cn2-c1ccnc(C(C)C)c1", "note": "[P-0203, 4-(5-(3,5-dimethylisoxazol-4-yl)-1-(2-isopropylpyridin-4-yl)-1H-pyrrolo[2,3-b]pyridin-3-yl)-3-(trifluoromethoxy)benzoic acid]", "IC50": "0.1 to 1000"}, {"smiles": "Cc1noc(C)c1-c1cnc2c(c1)c(-c1ccc(C(=O)O)cc1OC(F)(F)F)cn2-c1cnccc1C#N", "note": "[P-0204, 4-(1-(4-cyanopyridin-3-yl)-5-(3,5-dimethylisoxazol-4-yl)-1H-pyrrolo[2,3-b]pyridin-3-yl)-3-(trifluoromethoxy)benzoic acid]", "IC50": "0.1 to 1000"}, {"smiles": "CCOc1cc(C(=O)O)cc(F)c1-n1cc(-c2ccccc2)c2ncc(-c3c(C)noc3C)cc21", "note": "[P-0205, 4-(6-(3,5-dimethylisoxazol-4-yl)-3-phenyl-1H-pyrrolo[3,2-b]pyridin-1-yl)-3-ethoxy-5-fluorobenzoic acid]", "IC50": "0.1 to 1000"}, {"smiles": "CCOc1cccc(C#N)c1-n1cc(-c2ccccc2)c2ncc(-c3c(C)noc3C)cc21", "note": "[P-0206, 2-(6-(3,5-dimethylisoxazol-4-yl)-3-phenyl-1H-pyrrolo[3,2-b]pyridin-1-yl)-3-ethoxybenzonitrile]", "IC50": "0.1 to 1000"}, {"smiles": "Cc1noc(C)c1-c1cnc2c(-c3ccccc3)cn(-c3c(Cl)cccc3C#N)c2c1", "note": "[P-0207, 3-chloro-2-(6-(3,5-dimethylisoxazol-4-yl)-3-phenyl-1H-pyrrolo[3,2-b]pyridin-1-yl)benzonitrile]", "IC50": "1000 to 8000"}, {"smiles": "CCOc1cc(C(=O)O)cc(OCC)c1-n1cc(C2=CCC(F)(F)CC2)c2ncc(-c3c(C)noc3C)cc21", "note": "[P-0208, 4-(3-(4,4-difluorocyclohex-1-en-1-yl)-6-(3,5-dimethylisoxazol-4-yl)-1H-pyrrolo[3,2-b]pyridin-1-yl)-3,5-diethoxybenzoic acid]", "IC50": "0.1 to 1000"}]}]}
